{"source": "patent US8299037B2", "about": "“Feed or pharmaceutical composition comprising apramycin or an adequate salt thereof” (Poulpharm B.V.B.A., priority 2007, dated 2012)", "key": {"[1]": {"tested_on": "Histomonas meleagridis", "assay": "Prophylaxis of histomoniasis in turkey poults inoculated intracloacally, apramycin in feed (Example 1)", "format": "in vivo", "details": "live weight at the end of the study; 550 g/MT of feed, turkeys"}, "[2]": {"tested_on": "Histomonas meleagridis", "details": "cited from earlier work"}, "[3]": {"tested_on": "Histomonas meleagridis", "assay": "Prophylaxis of histomoniasis in turkey poults inoculated intracloacally, apramycin in feed (Example 1)", "format": "in vivo, turkeys", "excerpt": "The objective of the study was to investigate the activity of apramycin as prophylactic agent against a Histomonas meleagridis strain isolated from an outbreak of histomoniasis in turkeys in Belgium (September 2005). The antibiotic (apramycin) was supplemented through the feed at 550 g of the test product/MT of feed (Ap 550) in the challenged birds. This medicated group was compared with an Infected Untreated Control (IUC) and an Uninfected Untreated Control group (UUC).\nSeventy five (75) one day old male animals (turkey poults) were enrolled in the study and randomly allocated to 3 groups of 25 animals per pen. During the whole study (from day 1 to day 38), Treatment 1 (UUC) and 2 (IUC) received standard animal (turkey) feed without supplementation, whereas Treatment 3, received feed supplemented with apramycin sulphate. On day 22, Treatments 2 and 3 were inoculated intracloacally with Histomonas meleagridis. From that day one, the animals were clinically observed on a daily base. At the end of the study, D38, all remaining animals were euthanized and necropsied and lesion scored for caeca and liver.\nAll animals (turkeys) died during the challenge period were necropsied to determine the cause of death. […] (see Table 1 and FIG. 1)."}, "[4]": {"tested_on": "Histomonas meleagridis", "details": "turkeys; cited from earlier work"}, "[5]": {"details": "300 ppm, inoculated broiler chickens"}, "[6]": {"details": "necropsy, 550 g/MT of feed, turkeys"}}, "note": "Entries after “also recorded” stand apart in the source; their conditions may differ."}
{"smiles": "CN[C@@H]1[C@@H](O[C@H]2O[C@H](CO)[C@@H](N)[C@H](O)[C@H]2O)OC2C[C@@H](N)[C@@H](O[C@H]3[C@H](O)[C@@H](O)[C@H](N)C[C@@H]3N)OC2[C@@H]1O", "note": "(stereo partly drawn) [Ap 550, Apramycin]", "values": [{"measurement": "Average Weight at D40", "setting": "[1]", "result": 1.40, "unit": "kg"}, {"measurement": "In-vivo use against histomoniasis (in words)", "setting": "[2]; 300 ppm in broilers", "result": "ineffective"}, {"measurement": "Weight gain (in words)", "setting": "[2]; 300 ppm in broilers", "result": "no amelioration"}, {"measurement": "Caecal histomoniasis lesions (in words)", "setting": "[2]; [5]", "result": "No amelioration"}, {"measurement": "Liver lesions / liver lesion scores (in words)", "setting": "[2]; [5]", "result": "some reduction"}, {"measurement": "Mortality due to histomoniasis (% Cumulative)", "setting": "[3]; D 7 PI, 550 g/MT of feed, turkeys", "result": 0.00, "unit": "%"}, {"measurement": "Mortality due to histomoniasis (% Cumulative)", "setting": "[3]; D 8 PI, 550 g/MT of feed, turkeys", "result": 0.00, "unit": "%"}, {"measurement": "Mortality due to histomoniasis (% Cumulative)", "setting": "[3]; D 9 PI, 550 g/MT of feed, turkeys", "result": 0.00, "unit": "%"}, {"measurement": "Mortality due to histomoniasis (% Cumulative)", "setting": "[3]; D 10 PI, 550 g/MT of feed, turkeys", "result": 0.00, "unit": "%"}, {"measurement": "Mortality due to histomoniasis (% Cumulative)", "setting": "[3]; D11 PI, 550 g/MT of feed, turkeys", "result": 0.00, "unit": "%"}, {"measurement": "Mortality due to histomoniasis (% Cumulative)", "setting": "[3]; D 12 PI, 550 g/MT of feed, turkeys", "result": 0.00, "unit": "%"}, {"measurement": "Mortality due to histomoniasis (% Cumulative)", "setting": "[3]; D 13 PI, 550 g/MT of feed, turkeys", "result": 0.00, "unit": "%"}, {"measurement": "Mortality due to histomoniasis (% Cumulative)", "setting": "[3]; D 14 PI, 550 g/MT of feed, turkeys", "result": 0.00, "unit": "%"}, {"measurement": "Mortality due to histomoniasis (% Cumulative)", "setting": "[3]; D 15 PI, 550 g/MT of feed, turkeys", "result": 0.00, "unit": "%"}, {"measurement": "Mortality due to histomoniasis (% Cumulative)", "setting": "[3]; D 16 PI, 550 g/MT of feed, turkeys", "result": 0.00, "unit": "%"}, {"measurement": "Mortality during the challenge period (in words)", "setting": "[3]; inoculated turkeys, apramycin continuously in the feed", "result": "significant effect in reducing the mortality; also recorded: not a single animal died"}, {"measurement": "Mean lesion score at necropsy, Caecum score", "setting": "[3]; [6]", "result": 0.45}, {"measurement": "Mean lesion score at necropsy, Liver score", "setting": "[3]; [6]", "result": 0.00}, {"measurement": "Protection against the infection by Histomonas meleagridis (in words)", "setting": "[3]; turkeys, 550 g/MT of feed", "result": "does provide active protection"}, {"measurement": "Liver and caecal lesion scores (in words)", "setting": "[3]; turkeys, apramycin continuously in the feed", "result": "reduced significantly"}, {"measurement": "Treatment effect on histomoniasis (in words)", "setting": "[4]", "result": "No significant treatment effect"}]}
